The results in this text go back to US11485762B2, “Compositions and methods for inhibition of L-plastin activity in osteoclasts to reduce bone loss” (University of Maryland, Baltimore, priority 2017, dated 2022).

The subject of experiment [1] is osteoclasts derived from RAW cells. Kind of experiment: Podosome organization and migration in osteoclasts derived from RAW cells. Format: cell-based. The settings on record: compared with P5. The source says: C57/BL6 mice were used for osteoclast preparation as described previously (Chellaiah et al., 2000, J. Cell Biol., 148: 665.678; Chellaiah et al., 2007, J. Biol. Chem., 282: 10104-10116). Osteoclasts were generated in vitro using mouse bone marrow (BM) cells as described (Chellaiah et al., 2000, J. Cell Biol., 148: 665-678; Chellaiah et al., 2007, J. Biol. Chem., 282: 10104.10116). Osteoclasts differentiated from RAW 264.7 cells were also used to corroborate a few of the observations made with osteoclasts derived from mouse BM cells. Osteoclasts from RAW 264.7 cells were generated as described previously (Gupta et al., 2003, J Bone Miner Res 18: 669-685). Conditions were established that offer >90% population of mature multinucleated osteoclasts from both mouse bone marrow and RAW cells. […]
Cell migration (phagokinesis and transwell migration) assays were done as described previously (Chellaiah et al., 2000, J. Cell Biol., 148: 665-678). […] Migrated cells at the bottom of the wells were counted in 3-4 independent fields/transwell filter. […] In phagokinesis assay, cell motility was assessed by measuring the areas free of gold particles. By using a grided reticule (Boyce Scientific. Inc.) in the eyepiece of a Nikon microscope, areas free of gold particles were measured using a 10× objective. […]

For experiment [2] the test system is unchanged. Kind of experiment: NSZs and sealing ring formation in osteoclasts derived from RAW cells. Format: cell-based. The source says: C57/BL6 mice were used for osteoclast preparation as described previously (Chellaiah et al., 2000, J. Cell Biol., 148: 665.678; Chellaiah et al., 2007, J. Biol. Chem., 282: 10104-10116). Osteoclasts were generated in vitro using mouse bone marrow (BM) cells as described (Chellaiah et al., 2000, J. Cell Biol., 148: 665-678; Chellaiah et al., 2007, J. Biol. Chem., 282: 10104.10116). Osteoclasts differentiated from RAW 264.7 cells were also used to corroborate a few of the observations made with osteoclasts derived from mouse BM cells. Osteoclasts from RAW 264.7 cells were generated as described previously (Gupta et al., 2003, J Bone Miner Res 18: 669-685). Conditions were established that offer >90% population of mature multinucleated osteoclasts from both mouse bone marrow and RAW cells.
After cells were kept in the serum-free α-MEM medium for two hours, LPL peptides of interest were added to a final concentration of 100-150 nM to cells in serum-free media (Chellaiah et al, 2000, J. Biol. Chem., 275: 11993-12002). Osteoclasts transduced with peptides of interest and added with bone particles in the presence of TNF-α for 3-4 hours or 12-14 hours were used for lysate preparations. Cells plated on coverslips and treated with peptides were used for actin staining to detect podosomes. […]

For a further experiment, the system named is integrin αv. Kind of experiment: Localization of integrin αv in NSZs (immunostaining with LPL and integrin αv antibody). In kind it is cell-based, mouse. The settings on record: 3, 6 and 10 hours. As for the experimental part:
(§1) After cells were kept in the serum-free α-MEM medium for two hours, LPL peptides of interest were added to a final concentration of 100-150 nM to cells in serum-free media (Chellaiah et al, 2000, J. Biol. Chem., 275: 11993-12002). Osteoclasts transduced with peptides of interest and added with bone particles in the presence of TNF-α for 3-4 hours or 12-14 hours were used for lysate preparations. Cells plated on coverslips and treated with peptides were used for actin staining to detect podosomes. After transduction for 30 min., osteoclasts were re-plated on dentine slices with respective LPL peptide and TNF-α for 3-6 hours or 12-14 hours. These cells were used for Actin staining with rhodamine-phalloidin or immunostaining analyses (Chellaiah et al., 2000, J. Biol. Chem., 275: 11993-12002; Chellaiah et al., 2000, J. Cell. Biol., 148: 665-678; Chellaiah et al., 2003, J Biol Chem 278: 29086-29097).
(§2) Osteoclasts were fixed with 3% paraformaldehyde for 20 minutes and permeabilized with 0.1% Triton X-100 in PBS for 5 minutes. Subsequently, osteoclasts were stained with a primary (HA or integrin αv) and secondary antibody as described (Chellaiah et al., 2003, J Biol Chem 278: 29086-29097). Actin staining was done with rhodamine-phalloidin as described (Chellaiah et al., 2000, J. Biol. Chem., 275: 11993-12002; Chellaiah et al., 2000, J. Cell Biol., 148: 665-678). […]

The test system of experiment [3] is osteoclasts. Kind of experiment: Osteoclast migration (transwell and phagokinesis assays). Format: cell-based, mouse. The source says: Transwell migration was done essentially as reported previously (Chellaiah et al., 2000, J. Cell Biol., 148: 665-678). Osteoclasts that migrated to the underside of the transwell membrane were stained with hematoxylin stain. Dried filters ware cut out and mounted with a permount solution (Thomas Scientific, Swedesboro, N.J.) on a glass slide. Cells were viewed under X40 objective in an inverted microscope. Six fields per transwell insert were counted using a Zeiss microscope as described previously (Chellaiah et al., 2000, J. Biol. Chem., 275: 11993-12002). Data are presented as the number of cells per migrated field (mean±SD) from one experiment.
Cell migration (phagokinesis and transwell migration) assays were done as described previously (Chellaiah et al., 2000, J. Cell Biol., 148: 665-678). Osteoclasts transduced with sNT-LPL peptides (P1, P2, P5, and P6) were used for these assays. Three to four transwells were used for each treatment. Migrated cells at the bottom of the wells were counted in 3-4 independent fields/transwell filter. Data are presented as migrated cells/field (mean±SD). The experiment was repeated with three osteoclast preparations. In phagokinesis assay, cell motility was assessed by measuring the areas free of gold particles. By using a grided reticule (Boyce Scientific. Inc.) in the eyepiece of a Nikon microscope, areas free of gold particles were measured using a 10× objective. Areas free of gold particles were represented as area moved in mm^2 (Chellaiah et al., 2000, J. Cell Biol., 148: 665-678),

The test system of experiment [4] is osteoclasts. Kind of experiment: Sealing ring formation in osteoclasts plated on dentine. In kind it is cell-based, mouse. The note with it: for formation of mature sealing rings: sNT-LPL peptides, time course to 10 hours; for number of sealing rings: dentine 10-12 hours, TNF-α. The protocol:
The vector pTAT-HA has an N-terminal 6-histidine leader (Nagahara et al., 1998, Nature Medicine, 4:1449-1452). […] For transduction with TAT-fused peptides (100-150 nM), osteoclasts were first kept in serum-free α-MEM for two hours. Afterward, TAT proteins of interest, bone particles, and TNF-α were added to cells in serum-free α-MEM Lysates were made from these cells for immunoprecipitation and immunoblotting analyses. Osteoclasts plated on dentine slices in the presence of TAT-proteins of interest and TNF-α for 3-6 hours or 12-14 hours were used for immunostaining or actin staining analyses. Osteoclast cultures treated only with TNF-α were used as controls.
Osteoclast precursors (10^5 cells/coverslips) were cultured on glass cover slips or dentine slices. Fluorescent labeling was done in osteoclasts transduced or untransduced with TAT-proteins. HA or TAT antibody was used to identify the transduced peptides of interest; rhodamine phalloidin was used to determine actin organization (Chellaiah et al., 2000, J. Cell Biol., 148: 665-678; Chellaiah et al., 2000, J. Biol. Chem., 275: 11993-12002). Immunostained and actin stained osteoclasts were photographed with a Bio-Rad confocal laser-scanning microscope. Images were stored in TIF image format and processed by Adobe Photoshop (Adobe Systems Inc., Mountain View. Calif.).
as §1, §2

[5] abbreviates: phagokinesis and transwell migration assays, sNT-LPL peptides.
The mark [6] stands for this setting: transwell migration, TAT-fused LPL peptides.

As for “MARGSVSDEE [Peptide P1, TAT-fused small molecular weight (10aa) amino-terminal LPL peptide, unsubstituted (S5S7)]”, in experiment [1], the migration of osteoclasts entry is “no effect” and the “pattern of podosome organization” value is given as “no effect”. Besides, in experiment [2], the “formation of NSZs” value was “significant decrease” and the “formation of sealing rings” value is “significant decrease”. The “localization of integrin αv in NSZs / colocalization with LPL” value with integrin αv is on record as “abrogated”. Besides, in the experiment with osteoclasts [3] (setting [5]), the migration result was “Neither the migration (FIG. 12A-FIG. 12C) nor the formation the podosomes (FIG. 12D) was affected”. Besides, in the experiment with osteoclasts [4], the “formation of mature sealing rings” value is given as “abrogated”.

As for “MARGAVADEE [Peptide P2, TAT-fused sNT-LPL peptide, Ser-5 and Ser-7 substituted to Alanine (A5A7)]”, the migration entry in the experiment with osteoclasts [3] (setting [5]) was “Neither the migration (FIG. 12A-FIG. 12C) nor the formation the podosomes (FIG. 12D) was affected”.

Consider “SRSGMVEEAD [Peptide P5, TAT-fused scrambled sNT-LPL peptide, control, reference compound]”, for which the migration result in the experiment with osteoclasts [3] (setting [5]) is recorded as “Neither the migration (FIG. 12A-FIG. 12C) nor the formation the podosomes (FIG. 12D) was affected”. Moreover, the “formation of mature sealing rings” value with osteoclasts [4] is given as “time-dependent organization”.

B1: FL-LPL: HA-TAT fused full-length L-plastin protein (70-75 kDa), purified from bacterial expression vector pTAT-HA (protein, UniProt P13796 1-627, looked up)
chain: MARGSVSDEEMMELREAFAKVDTDGNGYISFNELNDLFKAACLPLPGYRVREITENLMATGDLDQDGRISFDEFIKIFHGLKSTDVAKTFRKAINKKEGICAIGGTSEQSSVGTQHSYSEEEKYAFVNWINKALENDPDCRHVIPMNPNTNDLFNAVGDGIVLCKMINLSVPDTIDERTINKKKLTPFTIQENLNLALNSASAIGCHVVNIGAEDLKEGKPYLVLGLLWQVIKIGLFADIELSRNEALIALLREGESLEDLMKLSPEELLLRWANYHLENAGCNKIGNFSTDIKDSKAYYHLLEQVAPKGDEEGVPAVVIDMSGLREKDDIQRAECMLQQAERLGCRQFVTATDVVRGNPKLNLAFIANLFNRYPALHKPENQDIDWGALEGETREERTFRNWMNSLGVNPRVNHLYSDLSDALVIFQLYEKIKVPVDWNRVNKPPYPKLGGNMKKLENCNYAVELGKNQAKFSLVGIGGQDLNEGNRTLTLALIWQLMRRYTLNILEEIGGGQKVNDDIIVNWVNETLREAKKSSSISSFKDPKISTSLPVLDLIDAIQPGSINYDLLKTENLNDDEKLNNAKYAISMARKIGARVYALPEDLVEVNPKMVMTVFACLMGKGMKRV
modifications: full-length HA-TAT tag
notes: HA-TAT fused full-length L-plastin protein (70-75 kDa), purified from bacterial expression vector pTAT-HA
Regarding B1, the migration result with osteoclasts [3] (setting [6]) is “does not affect”. Also, the entries for the “number of sealing rings” value in the experiment with osteoclasts [4] and in the experiment with osteoclasts [4] (listed as PL-LPL) were “Multiple sealing rings” and “increased”, respectively.

B2: mutated FL-LPL: TAT-fused full-length L-plastin with Ser-5 and Ser-7 mutated to Ala-5 and Ala-7 (protein, UniProt P13796 1-627, looked up, variant S5A S7A)
chain: MARGAVADEEMMELREAFAKVDTDGNGYISFNELNDLFKAACLPLPGYRVREITENLMATGDLDQDGRISFDEFIKIFHGLKSTDVAKTFRKAINKKEGICAIGGTSEQSSVGTQHSYSEEEKYAFVNWINKALENDPDCRHVIPMNPNTNDLFNAVGDGIVLCKMINLSVPDTIDERTINKKKLTPFTIQENLNLALNSASAIGCHVVNIGAEDLKEGKPYLVLGLLWQVIKIGLFADIELSRNEALIALLREGESLEDLMKLSPEELLLRWANYHLENAGCNKIGNFSTDIKDSKAYYHLLEQVAPKGDEEGVPAVVIDMSGLREKDDIQRAECMLQQAERLGCRQFVTATDVVRGNPKLNLAFIANLFNRYPALHKPENQDIDWGALEGETREERTFRNWMNSLGVNPRVNHLYSDLSDALVIFQLYEKIKVPVDWNRVNKPPYPKLGGNMKKLENCNYAVELGKNQAKFSLVGIGGQDLNEGNRTLTLALIWQLMRRYTLNILEEIGGGQKVNDDIIVNWVNETLREAKKSSSISSFKDPKISTSLPVLDLIDAIQPGSINYDLLKTENLNDDEKLNNAKYAISMARKIGARVYALPEDLVEVNPKMVMTVFACLMGKGMKRV
modifications: full-length HA-TAT tag
B2: in the experiment on osteoclasts [3] (setting [6]), the migration entry is given as “does not affect”.
